Read-outs that look alike come from different tables or passages of the source.
Key:
rGmolGOBP1 = rGmolGOBP1 (Grapholita molesta, UniProt H9XTU5); assay: Fluorescence competitive binding assay with 1-NPN probe; settings: for Ki: calculated from IC50 and Kd of 1-NPN
Text: (§1) Previous researchers have successfully expressed rGmolPBP1, rGmolPBP2, rGmolPBP3, rGmolGOBP1, and rGmolGOBP2 proteins using prokaryotic expression systems. In this article, the DNA sequences of these five GmolPBPs and GmolGOBPs, with the signal peptides removed and restriction sites on both ends, were inserted into the expression vector pET28a(+) linearized with the same restriction enzyme. These vectors were then transformed into Escherichia coli BL21(DE3) and induced by isopropyl-β-d-thiogalactoside (IPTG). Since all five recombinant proteins were expressed in inclusion bodies, they were denatured using 8 M urea and then renatured using a cysteine/cystine REDOX system. The reduced recombinant proteins were purified using an Ni-NTA His Bind Resin column (7Sea Pharmatech Co., Ltd., Shanghai, China). Non-target proteins were washed off with washing buffer (20 mM Tris-HCl (pH 7.4), 20 mM imidazole, 1 mM PMSF, and 250 mM NaCl), and then the target proteins were eluted with elution buffer (20 mM Tris-HCl (pH 7.4), 1 mM PMSF, and 250 mM NaCl) with an increasing concentration of imidazole (50, 100, and 200 mM). Five milliliters of eluents with high target protein content and low levels of contaminants were collected and placed in dialysis tubing (Coolaber, Beijing, China) with a molecular weight cut-off of 3.5 kDa to remove NaCl and imidazole. The purified soluble proteins were stored at −80 °C before use.
(§2) The binding affinities of three rGmolPBPs and two rGmolGOBPs for Z8-14:Ac were determined using an F-2700 fluorescence spectrophotometer (Hitachi, Tokyo, Japan). First, we measured the dissociation constants (Kd) of the rGmolPBPs (or rGmolGOBPs) binding to 1−NPN. Each protein was diluted to 2 μM with 20 mM Tris-HCl buffer (pH 7.4); then, 2 mL of the protein solution was transferred to a quartz cuvette and titrated with 1 mM 1−NPN to a final concentration of 1–18 μM. As the doses of 1−NPN were increased, the increasing amplitude of the fluorescence intensity decreased, and finally, the binding of the protein to 1−NPN reached saturation. The Kd values were calculated using the nonlinear regression method and the Scatchard equation. Second, we measured the inhibitory constant (Ki) of Z8-14:Ac’s competitive binding with each rGmolPBP (or rGmolGOBP) from the protein/1−NPN complex. The initial fluorescence intensity values were measured after a 2 min reaction in 2 mL solution of 20 mM Tris-HCl (pH 7.4) containing 2 µM rGmolPBP (or rGmolGOBP) protein and 2 µM 1−NPN. Then, the solution was titrated with aliquots of 1 mM Z8-14:Ac to obtain final concentrations in the range of 1–14 µM, and the fluorescence intensity value of each reaction was recorded. The Ki values were calculated using the following equation: Ki = [IC50]/(1 + [1 − NPN]/Kd) where IC50 is the concentration of Z8-14:Ac when half of the initial fluorescence intensity value of the rGmolPBP (or GmolGOBP)/1−NPN complex is replaced, [1 − NPN] represents the concentration of free 1−NPN, and Kd is the dissociation constant of the rGmolPBP (or GmolGOBP)/1−NPN complex.

rGmolGOBP2 = rGmolGOBP2 (Grapholita molesta, UniProt H9XTU6); assay: as above
rGmolGOBP2, sequence (H9XTU6 entry or part of it): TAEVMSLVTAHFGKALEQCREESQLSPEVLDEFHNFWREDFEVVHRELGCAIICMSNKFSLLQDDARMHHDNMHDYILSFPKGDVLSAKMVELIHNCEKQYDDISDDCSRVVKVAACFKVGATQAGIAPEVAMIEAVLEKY
Text: as §1, §2

rGmolPBP1 = rGmolPBP1 (Grapholita molesta, UniProt A0A2R4SBD6); assay: as above
rGmolPBP1, sequence (A0A2R4SBD6 entry or part of it): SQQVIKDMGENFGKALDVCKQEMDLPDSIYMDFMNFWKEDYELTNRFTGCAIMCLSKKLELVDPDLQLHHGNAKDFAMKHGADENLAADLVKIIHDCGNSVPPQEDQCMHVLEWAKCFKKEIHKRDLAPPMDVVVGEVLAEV
Text: as §1, §2

rGmolPBP2 (wild-type) = rGmolPBP2 (wild-type) (Grapholita molesta, UniProt A0A059VC28); assay: as above
rGmolPBP2 (wild-type), sequence (A0A059VC28 entry or part of it): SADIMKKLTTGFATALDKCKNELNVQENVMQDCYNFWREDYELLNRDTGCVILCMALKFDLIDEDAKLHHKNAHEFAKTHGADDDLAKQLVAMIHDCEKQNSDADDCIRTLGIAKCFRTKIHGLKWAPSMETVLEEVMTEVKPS
Text: as §1, §2

rGmolPBP3 = rGmolPBP3 (Grapholita molesta, UniProt A0A059VBP3); assay: as above
rGmolPBP3, sequence (A0A059VBP3 entry or part of it): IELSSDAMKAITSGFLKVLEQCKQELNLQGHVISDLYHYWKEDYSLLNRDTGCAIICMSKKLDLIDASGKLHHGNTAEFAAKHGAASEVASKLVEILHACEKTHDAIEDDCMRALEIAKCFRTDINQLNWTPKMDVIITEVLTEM
Text: as §1, §2

OFM males = assay: Field trapping with delta traps, pear orchard; format: in vivo, Grapholita molesta; settings: for Inhibition Rate of OFM Males: vs 100:4:0
Protocol: To determine the inhibitory effects on OFM male adults and the impact on the trapping effects of PFM male adults, varying amounts of Z8-14:Ac (0, 5, 10, 25, 50, 75, 100, 125, 150 μg) or Z10-14:Ac (0, 25, 50, 100, 150, 250, 350, 450, and 550 μg) were added to rubber septa loaded with a constant dosage of the main pheromone (500 μg of Z8-12:Ac and 20 μg of E8-12:Ac) of the PFM. Trapping experiments of Z8-14:Ac were carried out in peach and pear orchards in Yan’an and Xinjiang (China), respectively. Trapping tests of Z10-14:Ac were performed in pear orchards in Xinjiang (China). Each orchard had nine plots, with three plots in one field. Each plot consisted of a linear arrangement of traps loaded with a constant dosage of the main pheromones and different percentages of the secondary pheromone Z8-14:Ac or Z10-14:Ac of the PFM. Plots in the same field were placed 30 m apart, and fields were ≥1 km apart. The traps were hung 1.4 m from the ground on a suspension bracket between two rows of peach or pear trees from 10 June to 25 July 2021 in Xinjiang and from 15 June to 30 July 2021 in Yan’an. The positions of the traps within the plot were randomly arranged. Every 5 days, counts were taken, and the traps were rotated to the adjacent position to avoid any potential position effects. The septa loaded with sex pheromone components were replaced with new ones after every 15 days of suspension. The data were analyzed using a one-way ANOVA, and the differences in the average trapping of OFM and PFM males using sex attractants containing different amounts of Z8-14:Ac or Z10-14:Ac were further analyzed using Tukey’s HSD test, both of which were performed using SPSS 23.0.

[1] = 2 μM protein, 2 μM 1-NPN, pH 7.4, read-out: IC50 (displacement of 1-NPN)
[2] = calculated from IC50 and Kd of 1-NPN
[3] = pear orchard, Z8-12:Ac/E8-12:Ac/Z8-14:Ac 500/20/5 μg (100:4:1)
[4] = pear orchard, Z8-12:Ac/E8-12:Ac/Z8-14:Ac 500/20/10 μg (100:4:2)
[5] = pear orchard, Z8-12:Ac/E8-12:Ac/Z8-14:Ac 500/20/25 μg (100:4:5)
[6] = pear orchard, Z8-12:Ac/E8-12:Ac/Z8-14:Ac 500/20/50 μg (100:4:10)
[7] = pear orchard, Z8-12:Ac/E8-12:Ac/Z8-14:Ac 500/20/75 μg (100:4:15)
[8] = pear orchard, Z8-12:Ac/E8-12:Ac/Z8-14:Ac 500/20/100 μg (100:4:20)
[9] = pear orchard, Z8-12:Ac/E8-12:Ac/Z8-14:Ac 500/20/125 μg (100:4:25)
[10] = pear orchard, Z8-12:Ac/E8-12:Ac/Z8-14:Ac 500/20/150 μg (100:4:30)

rGmolGOBP1, sequence (H9XTU5 entry or part of it): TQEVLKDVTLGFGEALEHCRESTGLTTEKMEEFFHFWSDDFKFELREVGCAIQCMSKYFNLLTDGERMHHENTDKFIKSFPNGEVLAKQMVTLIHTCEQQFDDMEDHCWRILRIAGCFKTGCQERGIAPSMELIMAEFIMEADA

## CCCCC/C=C\CCCCCCCOC(C)=O [Z8-14:Ac, (Z)-8-tetradecenyl acetate]
rGmolGOBP1; [1]
  IC50: > 14 µM
rGmolGOBP1
  Ki: could not be calculated
rGmolGOBP1; read-out: Ki
  Ki: > 14 µM
rGmolGOBP2; [1]
  IC50: 3.53 ± 0.22 µM
rGmolGOBP2; [2]
  Ki: 2.86 ± 0.18 µM
rGmolPBP1; [1]
  IC50: 2.93 ± 0.07 µM
rGmolPBP1; [2]
  Ki: 1.66 ± 0.04 µM
rGmolPBP2 (wild-type); [1]
  IC50: 1.26 ± 0.04 µM
rGmolPBP2 (wild-type); [2]
  Ki: 0.66 ± 0.02 µM
rGmolPBP3; [1]
  IC50: 2.78 ± 0.32 µM
rGmolPBP3; [2]
  Ki: 2.56 ± 0.27 µM
OFM males; field trials, varying ratios of Z8-14:Ac (1% to 30%) added to Z8-12:Ac and E8-12:Ac
  maximum reduction of the capture of OFM males: up to 96.54%
OFM males; [3]
  Total OFM Males/Trap: 59.24 ± 10.14 b Males/Trap
  Inhibition Rate of OFM Males: 65.04%
OFM males; [4]
  Total OFM Males/Trap: 61.31 ± 7.21 b Males/Trap
  Inhibition Rate of OFM Males: 63.82%
OFM males; [5]
  Total OFM Males/Trap: 21.36 ± 6.22 c Males/Trap
  Inhibition Rate of OFM Males: 87.40%
OFM males; [6]
  Total OFM Males/Trap: 12.05 ± 0.91 c Males/Trap
  Inhibition Rate of OFM Males: 92.89%
OFM males; [7]
  Total OFM Males/Trap: 8.95 ± 2.69 c Males/Trap
  Inhibition Rate of OFM Males: 94.72%
OFM males; [8]
  Total OFM Males/Trap: 12.74 ± 6.57 c Males/Trap
  Inhibition Rate of OFM Males: 92.48%
OFM males; [9]
  Total OFM Males/Trap: 5.86 ± 1.50 c Males/Trap
  Inhibition Rate of OFM Males: 96.54%
OFM males; [10]
  Total OFM Males/Trap: 10.33 ± 2.98 c Males/Trap
  Inhibition Rate of OFM Males: 93.90%
OFM males; pear orchard, adding 5–30% of Z8-14:Ac to Z8-12:Ac and E8-12:Ac
  reduction of the number of OFM males caught: more than 86%
OFM males; pear orchards, adding 1–2% of Z8-14:Ac to Z8-12:Ac and E8-12:Ac (100:4)
  reduction of the capture of OFM males: 63.82–65.04%
